Results reported in patent US4194009A, “Aryloxyphenylpropylamines for obtaining a psychotropic effect” (Eli Lilly and Company, priority 1976, dated 1980).

What was measured:
anesthetized cats = assay: electrocardiogram (QRS complex) in anesthetized cats; conditions: intravenous injection
rats = assay: prevention of brain serotonin depletion caused by 4-chloroamphetamine; type: in vivo, rat; conditions: in words
Description: Following this injection, the protecting drug was injected at a dose of 15 mg./kg. of rat-weight intraperitoneally and determinations of brain serotonin levels were carried out 4 hours later.

mice [1] = assay: apomorphine hypothermia antagonism test; type: in vivo; conditions: for antagonism of apomorphine hypothermia: in words
Description: (§1) The apomorphine hypothermia antagonism test is carried out as follows: mice are injected with a dose of apomorphine known to reduce body temperature approximately 4° C. The compound under test is injected 1/2 hour before the injection of the apomorphine and the temperatures measured 1/2 hour after injection. The degree of antagonism is expressed as a percent reduction (as compared with controls) of the temperature decrease produced by the injection of the apomorphine. The reserpine hypothermia reversal test is carried out as follows: groups of mice are injected with reserpine and 16.5 hours later are injected intraperitoneally with graded doses of the drug, a different dose level being given to each group of mice. Temperatures are measured at 1 hour after injection of the drug under test and again the effectiveness of the drug is expressed as a percentage decrease in the hypothermia induced by the injection of reserpine as compared with the control group. In the tables which follow, Table 4 gives the results in the apomorphine antagonism and reserpine reversal hypothermia tests for the secondary amines of this invention. In the table, the first column gives the substituent attached to the oxygen atom at the 3 position of the propylamine chain; columns 2 to 4 the percent antagonism against apomorphine hypothermia at dose levels of 0.3, 1 and 3 mg./kg. and columns 5-7 the percent reversal of reserpine hypothermia at the same dose levels.

mice [2] = assay: reserpine hypothermia reversal test; type: in vivo; conditions: for reversal of reserpine hypothermia: in words
Description: as §1

isolated muscle strips [3] = assay: antihistaminic effect in isolated muscle strips; type: cell-based
isolated muscle strips [4] = assay: anticholinergic effect in isolated muscle strips; type: cell-based
isolated muscle strips [5] = assay: antiserotonin effect in isolated muscle strips; type: cell-based
pigeons = assay: operant behavior, fixed-ratio, fixed interval schedule in pigeons; type: in vivo
[6] = test system: norepinephrine uptake by synaptosomes from rat brain; assay: blockage of norepinephrine uptake by synaptosomes from rat brain; type: biochemical
Description: (§2) This blockade is shown both in vitro with radioactive labelled compounds to determine the amount of monoamine uptake by synaptosomes from rat brain, and in vivo by a variety of methods. Among the physiologically active monoamines whose uptake is blocked by the compounds of this invention are included serotonin, norepinephrine and dopamine (3,4-dihydroxyphenylethylamine). […] Tables 1 and 2 which follow set forth the results of some of the in vitro determinations of the blockage of monoamine uptake by the compounds of this invention. In the tables, column 1 gives the R substituent on the 3-phenylpropylamine and columns 2-4, the concentration in micrograms per ml. that blocks the uptake of a particular amine by 50 percent for the amines--norephinephrine, serotonin, and dopamine. At the head of each column is given the concentration of the particular monoamine used in the experiment.

[7] = test system: dopamine uptake by synaptosomes from rat brain; assay: blockage of dopamine uptake by synaptosomes from rat brain; type: biochemical
Description: as §2

[8] = prevention of brain monoamine depletion caused by α-ethyl-4-methyl-m-tyramine; type: in vivo; conditions: in words
[9] = test system: serotonin uptake by synaptosomes from rat brain; assay: blockage of serotonin uptake by synaptosomes from rat brain; type: biochemical; conditions: Table 1, serotonin 0.1 μM
Description: In the tables, column 1 gives the R substituent on the 3-phenylpropylamine and columns 2-4, the concentration in micrograms per ml. that blocks the uptake of a particular amine by 50 percent for the amines--norephinephrine, serotonin, and dopamine. At the head of each column is given the concentration of the particular monoamine used in the experiment.

[10] = Table 1, norepinephrine 0.48 μM
[11] = Table 5, mice, 3 mg./kg. intraperitoneally
[12] = Table 5, mice, 10 mg./kg. intraperitoneally

COc1ccccc1OC(CCN)c1ccccc1 (stereo not shown) [3-(o-Methoxyphenoxy)-3-phenylpropylamine, 3-(o-methoxyphenoxy)-3-phenylpropylamine]
widening of the QRS complex of the electrocardiogram (anesthetized cats): affects the electrocardiogram similarly, but at far higher doses

NCCC(Oc1ccc(C(F)(F)F)cc1)c1ccccc1.O=C(O)C(=O)O (stereo not shown) [3-(p-trifluoromethylphenoxy)-3-phenylpropylamine oxalate]
prevention of serotonin depletion caused by 4-chloroamphetamine (rats): gave similar results

CN(C)CCC=C1c2ccccc2CCc2ccccc21 [amitriptyline, reference compound]
antagonism of apomorphine hypothermia (mice [1]): active
reversal of reserpine hypothermia (mice [2]): active
widening of the QRS complex of the electrocardiogram (anesthetized cats): causes a widening of the QRS complex

CNCCCN1c2ccccc2CCc2ccccc21 [desmethylimipramine]
antagonism of apomorphine hypothermia (mice [1]): active
reversal of reserpine hypothermia (mice [2]): active
antihistaminic potency relative to N-methyl 3-(o-methoxyphenoxy)-3-phenylpropylamine (isolated muscle strips [3]): 150 times
anticholinergic potency relative to N-methyl 3-(o-methoxyphenoxy)-3-phenylpropylamine (isolated muscle strips [4]): 150 times
antiserotonin potency relative to N-methyl 3-(o-methoxyphenoxy)-3-phenylpropylamine (isolated muscle strips [5]): three times more potent

CNCCC(Oc1ccccc1OC)c1ccccc1 (stereo not shown) [o-anisyl, N-methyl 3-(o-methoxyphenoxy)-3-phenylpropylamine]
persistence of the effect on response rates (pigeons): more than 24 hours

CNCCC(Oc1ccc(C(F)(F)F)cc1)c1ccccc1 (stereo not shown) [p-trifluoromethylpenyl, N-methyl 3-(p-trifluoromethylphenoxy)-3-phenylpropylamine]
Concentration in mcg./ml. that blocks 50% of amine uptake, Norepinephrine ([6]; Table 2, norepinephrine 0.48 μM): 20 µg/mL
Concentration in mcg./ml. that blocks 50% of amine uptake, Dopamine ([7]; Table 2, dopamine 0.2 μM): > 100 µg/mL
prevention of serotonin depletion caused by 4-chloroamphetamine (rats): prevented the depletion of serotonin
depletion of norepinephrine by α-ethyl-4-methyl-m-tyramine [8]: not the depletion of norepinephrine
depletion of serotonin in the brain by α-ethyl-4-methyl-m-tyramine [8]: prevented the depletion of serotonin in the brain

CN(C)CCC(Oc1ccc(C(F)(F)F)cc1)c1ccccc1 (stereo not shown) [p-trifluoromethylphenyl, N,N-dimethyl 3-(p-trifluoromethylphenoxy)-3-phenylpropylamine]
Concentration in mcg./ml. that blocks 50% of amine uptake, Norepinephrine [6, 10]: 70 µg/mL
Concentration in mcg./ml. that blocks 50% of amine uptake, Serotonin [9]: .16 µg/mL
Concentration in mcg./ml. that blocks 50% of amine uptake, Dopamine ([7]; Table 1, dopamine 0.2 μM): > 100 µg/mL
prevention of serotonin depletion caused by 4-chloroamphetamine (rats): gave similar results
inhibition in vivo at 1 mg/kg (mice [1]; Mus musculus, Table 4, mice, 1 mg./kg., read-out: Percent Antagonism Apomorphine Pre-30 min.): 11%
inhibition in vivo at 3 mg/kg (mice [1]; Mus musculus, Table 4, mice, 3 mg./kg., read-out: Percent Antagonism Apomorphine Pre-30 min.): 25%
inhibition in vivo at 3 mg/kg (mice [1]; Mus musculus, Table 5, mice, 3 mg./kg., read-out: Percent Antagonism Apomorphine Pre-30 min.): 24%
inhibition in vivo at 3 mg/kg (mice [2]; Mus musculus, ip, 1 h, Table 5, mice, 3 mg./kg. intraperitoneally, read-out: Percent Antagonism Reserpine Post-60 min.): 20%

CN(C)CCC(Oc1ccccc1)c1ccccc1 (stereo not shown) [phenyl]
Concentration in mcg./ml. that blocks 50% of amine uptake, Norepinephrine [6, 10]: 1 µg/mL
Concentration in mcg./ml. that blocks 50% of amine uptake, Serotonin [9]: .6 µg/mL
Concentration in mcg./ml. that blocks 50% of amine uptake, Dopamine ([7]; Table 1, dopamine 0.2 μM): .3 µg/mL
Percent Antagonism Apomorphine Pre-30 min. (mice [1]; Table 5, mice, 3 mg./kg.): 3%
Percent Antagonism Apomorphine Pre-30 min. (mice [1]; Table 5, mice, 10 mg./kg.): 54%
Percent Antagonism Reserpine Post-60 min. (mice [2]; [11]): 20%
Percent Antagonism Reserpine Post-60 min. (mice [2]; [12]): 49%

CN(C)CCC(Oc1cccc2ccccc12)c1ccccc1 (stereo not drawn) [α-naphthyl, N,N-dimethyl 3-(α-naphthyloxy)-3-phenylpropylamine]
Concentration in mcg./ml. that blocks 50% of amine uptake, Norepinephrine [6, 10]: 3 µg/mL
Concentration in mcg./ml. that blocks 50% of amine uptake, Serotonin [9]: .03 µg/mL
Concentration in mcg./ml. that blocks 50% of amine uptake, Dopamine ([7]; Table 1, dopamine 0.2 μM): 2.5 µg/mL
Percent Antagonism Apomorphine Pre-30 min. (mice [1]; Table 5, mice, 1 mg./kg.): -17%
Percent Antagonism Apomorphine Pre-30 min. (mice [1]; Table 5, mice, 3 mg./kg.): -10%
Percent Antagonism Apomorphine Pre-30 min. (mice [1]; Table 5, mice, 10 mg./kg.): -7%
Percent Antagonism Reserpine Post-60 min. (mice [2]; Table 5, mice, 1 mg./kg. intraperitoneally): 15%
Percent Antagonism Reserpine Post-60 min. (mice [2]; [11]): 4%
Percent Antagonism Reserpine Post-60 min. (mice [2]; [12]): 15%
